Patent US20240293380A1, “PROTEASE INHIBITORS AND METHODS OF USE” (priority 2021, published 2024)
pEC50, pIC50: −log10 of the molar value.

target: SARS-CoV-2 3CLpro (Severe acute respiratory syndrome coronavirus 2 (2019-nCoV) (SARS-CoV-2), UniProt P0DTD1); assay: not given; type: biochemical; conditions: not given

Row | SMILES | pIC50
1 | O=C(Cc1cncc2ccccc12)N(Cc1cc(F)cc(Cl)c1)c1ccc(-c2c[nH]cn2)cc1 [Compound 12, N-[(3-chloro-5-fluoro-phenyl)methyl]-N-[4-(1H-imidazol-4-yl)phenyl]-2-(4-isoquinolyl)acetamide] | 7.82
2 | Cc1ccc2nnc(CC(=O)N(Cc3cc(F)cc(Cl)c3)c3ccc(-c4c[nH]cn4)cc3)n2n1 [Compound 42] | 6.60
3 | CC(c1cc(F)cc(F)c1)N(C(=O)Cc1cncc2ccccc12)c1ccc(-c2c[nH]cn2)cc1 (stereo not shown) [Compound 30] | 6.94
4 | Cc1cncc(CC(=O)N(Cc2cc(F)cc(F)c2)c2ccc(-c3c[nH]cn3)cc2)c1 [Compound 66] | 6.99
5 | O=C1CN(c2ccc(N(Cc3cc(F)cc(F)c3)C(=O)Cc3cncc4ccccc34)cc2)CCN1 [Compound 36] | 6.43
6 | Cc1cncc(CC(=O)N(Cc2cc(F)cc(Cl)c2)c2ccc(C3CNC3)cc2)c1 [Compound 80] | 6.96
7 | O=C(Cc1cncc(C2CC2)c1)N(Cc1cc(F)cc(F)c1)c1ccc(-c2c[nH]cn2)cc1 [Compound 67] | 6.79
8 | O=C(Cc1nnc2ccccn12)N(Cc1cc(F)cc(Cl)c1)c1ccc(-c2c[nH]cn2)cc1 [Compound 9, N-[(3-chloro-5-fluoro-phenyl)methyl]-N-[4-(1H-imidazol-4-yl)phenyl]-2-([1,2,4]triazolo[4,3-a]pyridin-3-yl)acetamide] | 7.15
9 | NC(=O)c1ccc(N(Cc2cc(F)cc(F)c2)C(=O)Cc2cncc3ccccc23)cc1 [Compound 51] | 7.00
10 | Cc1ccncc1CC(=O)N(Cc1cc(F)cc(Cl)c1)c1ccc(-c2c[nH]cn2)cc1 [Compound 77] | 6.87
11 | O=C(Cc1cncc2ccccc12)N(Cc1cc(F)cc(F)c1)c1ccc(-c2c[nH]cn2)cc1 [Compound 28] | 7.28
12 | O=C(Cc1cnccn1)N(Cc1cccc(Cl)c1)c1ccc(-c2cn[nH]c2)cc1 [Compound 5, N-[(3-chlorophenyl)methyl]-2-pyrazin-2-yl-N-[4-(1H-pyrazol-4-yl)phenyl]acetamide] | 5.28

system: SARS-CoV-2; assay: microbe, parasite or virus in culture; type: cell-based, SARS-Related Coronavirus 2, Isolate USA-WA1/2020; conditions: Severe acute respiratory syndrome coronavirus 2, Vero C1008

Row | SMILES | pEC50
13 | O=C(Cc1cncc2ccccc12)N(Cc1cc(F)cc(Cl)c1)c1ccc(-c2c[nH]cn2)cc1 [Compound 12, N-[(3-chloro-5-fluoro-phenyl)methyl]-N-[4-(1H-imidazol-4-yl)phenyl]-2-(4-isoquinolyl)acetamide] | 5.94
